The record followed here is ChEMBL document CHEMBL1139500, “The next generation of phosphodiesterase inhibitors: structural clues to ligand and substrate selectivity of phosphodiesterases” (J Med Chem, 2005).

Experiment [1] deals with T1, Phosphodiesterase 7 (Homo sapiens, UniProt Q13946+Q9NP56). Briefly: (§1) Inhibition of human phosphodiesterase 7. Format: protein assay.
The target of a further experiment is Phosphodiesterase 6. Briefly: Inhibition of human phosphodiesterase 6. Format: protein assay.
The nature of experiment [2]: Inhibitory activity against phosphodiesterase 8.
For experiment [3], the target named is T1, Phosphodiesterase 7. Described as §1. Format: protein assay. This is another data set of the same source.
The target in experiment [4] is cGMP-dependent 3',5'-cyclic phosphodiesterase (Homo sapiens, UniProt O00408). Briefly: Inhibition of human phosphodiesterase 2.
Sequence of cGMP-dependent 3',5'-cyclic phosphodiesterase (O00408 whole entry): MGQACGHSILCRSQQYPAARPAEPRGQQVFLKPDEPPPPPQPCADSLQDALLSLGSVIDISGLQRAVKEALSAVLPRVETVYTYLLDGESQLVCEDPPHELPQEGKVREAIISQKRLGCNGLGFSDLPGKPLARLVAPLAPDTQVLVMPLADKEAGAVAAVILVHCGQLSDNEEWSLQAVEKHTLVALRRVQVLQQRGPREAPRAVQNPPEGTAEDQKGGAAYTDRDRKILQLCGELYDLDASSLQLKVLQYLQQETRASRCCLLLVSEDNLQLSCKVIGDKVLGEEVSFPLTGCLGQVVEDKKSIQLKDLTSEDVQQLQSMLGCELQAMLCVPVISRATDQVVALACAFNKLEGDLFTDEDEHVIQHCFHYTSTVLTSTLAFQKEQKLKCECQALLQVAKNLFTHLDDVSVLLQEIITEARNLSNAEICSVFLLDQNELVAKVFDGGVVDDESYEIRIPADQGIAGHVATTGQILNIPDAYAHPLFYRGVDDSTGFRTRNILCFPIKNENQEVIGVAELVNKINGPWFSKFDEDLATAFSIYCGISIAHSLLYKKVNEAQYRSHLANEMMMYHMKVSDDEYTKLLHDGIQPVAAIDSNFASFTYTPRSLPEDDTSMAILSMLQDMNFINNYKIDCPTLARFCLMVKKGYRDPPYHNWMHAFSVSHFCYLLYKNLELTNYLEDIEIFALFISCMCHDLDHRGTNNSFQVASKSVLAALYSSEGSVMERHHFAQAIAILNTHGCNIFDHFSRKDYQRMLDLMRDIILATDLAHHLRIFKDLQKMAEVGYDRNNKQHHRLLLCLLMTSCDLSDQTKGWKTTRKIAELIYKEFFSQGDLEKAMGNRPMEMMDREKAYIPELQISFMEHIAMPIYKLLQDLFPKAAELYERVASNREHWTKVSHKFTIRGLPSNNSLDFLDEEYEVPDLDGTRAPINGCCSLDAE
The target of another experiment is Phosphodiesterase 1 (Homo sapiens, UniProt P54750+Q01064+Q14123). Briefly: Inhibition of human phosphodiesterase 1. Format: protein assay.
For experiment [5], the target named is High affinity cGMP-specific 3',5'-cyclic phosphodiesterase 9A (Homo sapiens, UniProt O76083). Briefly: Inhibition of human phosphodiesterase 9.
Sequence of High affinity cGMP-specific 3',5'-cyclic phosphodiesterase 9A (O76083 whole entry): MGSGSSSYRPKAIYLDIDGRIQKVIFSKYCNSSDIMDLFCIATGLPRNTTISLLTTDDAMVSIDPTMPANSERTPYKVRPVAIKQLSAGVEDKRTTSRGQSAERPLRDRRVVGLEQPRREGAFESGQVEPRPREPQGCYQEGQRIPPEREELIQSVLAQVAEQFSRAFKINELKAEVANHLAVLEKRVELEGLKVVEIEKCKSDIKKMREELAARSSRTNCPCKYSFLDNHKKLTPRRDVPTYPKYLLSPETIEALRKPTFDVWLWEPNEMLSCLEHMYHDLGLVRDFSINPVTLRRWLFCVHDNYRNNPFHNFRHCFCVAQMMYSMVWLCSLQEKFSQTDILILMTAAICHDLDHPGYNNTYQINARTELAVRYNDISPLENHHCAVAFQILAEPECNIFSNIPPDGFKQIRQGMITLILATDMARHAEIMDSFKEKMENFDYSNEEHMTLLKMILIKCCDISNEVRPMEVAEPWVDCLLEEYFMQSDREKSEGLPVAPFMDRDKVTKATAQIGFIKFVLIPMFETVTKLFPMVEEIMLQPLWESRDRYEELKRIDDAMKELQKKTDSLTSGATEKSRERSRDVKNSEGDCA
Experiment [6] has as its target cAMP and cAMP-inhibited cGMP 3',5'-cyclic phosphodiesterase 10A (Homo sapiens, UniProt Q9Y233). Briefly: Inhibitory concentration value against phosphodiesterase 10.

T1 sequence (Q13946 whole entry, looked up): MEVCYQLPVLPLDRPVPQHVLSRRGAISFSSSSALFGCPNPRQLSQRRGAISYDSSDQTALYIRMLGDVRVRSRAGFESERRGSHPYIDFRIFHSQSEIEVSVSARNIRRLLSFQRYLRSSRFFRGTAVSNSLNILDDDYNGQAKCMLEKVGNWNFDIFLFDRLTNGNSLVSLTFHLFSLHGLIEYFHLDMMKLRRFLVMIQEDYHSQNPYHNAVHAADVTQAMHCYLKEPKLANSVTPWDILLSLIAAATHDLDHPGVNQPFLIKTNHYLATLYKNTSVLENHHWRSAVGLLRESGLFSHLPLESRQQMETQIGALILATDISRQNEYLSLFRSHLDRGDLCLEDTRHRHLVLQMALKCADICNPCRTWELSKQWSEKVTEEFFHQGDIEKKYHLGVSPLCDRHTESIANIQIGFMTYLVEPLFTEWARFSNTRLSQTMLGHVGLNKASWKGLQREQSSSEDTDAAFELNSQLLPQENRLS
T1 sequence (Q9NP56 whole entry, looked up): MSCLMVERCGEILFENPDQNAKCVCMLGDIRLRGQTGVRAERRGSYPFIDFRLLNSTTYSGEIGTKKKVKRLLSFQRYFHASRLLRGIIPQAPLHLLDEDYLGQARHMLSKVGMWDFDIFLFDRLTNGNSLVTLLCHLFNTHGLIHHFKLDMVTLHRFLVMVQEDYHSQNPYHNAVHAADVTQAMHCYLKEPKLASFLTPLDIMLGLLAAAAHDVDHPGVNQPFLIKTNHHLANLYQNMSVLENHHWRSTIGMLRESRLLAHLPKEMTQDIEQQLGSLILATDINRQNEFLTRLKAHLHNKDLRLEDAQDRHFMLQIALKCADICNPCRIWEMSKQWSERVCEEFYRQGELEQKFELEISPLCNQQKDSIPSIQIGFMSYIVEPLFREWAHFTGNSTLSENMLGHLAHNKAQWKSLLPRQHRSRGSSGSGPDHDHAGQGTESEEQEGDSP
Sequence of cAMP and cAMP-inhibited cGMP 3',5'-cyclic phosphodiesterase 10A (Q9Y233 whole entry): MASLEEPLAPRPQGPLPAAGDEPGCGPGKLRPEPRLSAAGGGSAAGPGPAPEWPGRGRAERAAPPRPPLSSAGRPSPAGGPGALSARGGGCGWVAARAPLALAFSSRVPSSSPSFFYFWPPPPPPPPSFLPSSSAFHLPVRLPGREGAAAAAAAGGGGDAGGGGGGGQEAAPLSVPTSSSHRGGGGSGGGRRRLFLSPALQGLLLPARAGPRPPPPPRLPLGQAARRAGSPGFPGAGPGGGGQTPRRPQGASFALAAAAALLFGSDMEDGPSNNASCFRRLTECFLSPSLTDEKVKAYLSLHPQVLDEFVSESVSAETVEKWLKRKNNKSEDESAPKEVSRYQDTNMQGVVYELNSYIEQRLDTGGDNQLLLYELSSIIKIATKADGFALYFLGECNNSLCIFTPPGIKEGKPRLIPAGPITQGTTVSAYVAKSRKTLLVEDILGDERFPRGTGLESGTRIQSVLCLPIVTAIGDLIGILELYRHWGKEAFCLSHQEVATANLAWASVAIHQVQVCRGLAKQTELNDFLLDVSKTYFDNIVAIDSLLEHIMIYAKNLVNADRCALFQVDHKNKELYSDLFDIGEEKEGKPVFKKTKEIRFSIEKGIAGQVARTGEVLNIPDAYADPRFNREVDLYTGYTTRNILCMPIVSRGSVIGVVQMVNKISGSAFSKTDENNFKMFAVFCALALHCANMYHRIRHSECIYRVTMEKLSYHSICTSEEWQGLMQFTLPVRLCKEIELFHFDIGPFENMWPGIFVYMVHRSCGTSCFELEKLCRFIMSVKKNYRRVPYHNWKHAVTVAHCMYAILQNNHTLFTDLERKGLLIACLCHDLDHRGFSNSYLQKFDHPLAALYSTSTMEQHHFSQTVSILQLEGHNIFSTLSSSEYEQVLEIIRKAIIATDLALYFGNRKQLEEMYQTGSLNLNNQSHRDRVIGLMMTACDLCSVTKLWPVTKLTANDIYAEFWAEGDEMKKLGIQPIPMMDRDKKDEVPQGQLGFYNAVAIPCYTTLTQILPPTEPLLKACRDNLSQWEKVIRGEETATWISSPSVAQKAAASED

Regarding `Cc1nc(N)c2ccc(-c3nn(C)/c(=N/C4CCCCC4)s3)cc2n1`, at Phosphodiesterase 7 [1], the Inhibition worked out at 3.9 µM.
Still for that read-out and setting: the value for `Cn1nc(-c2ccc(Cl)cc2)s/c1=N\C1CCCCC1` was 1.5 µM.
For `OCCN(CCO)c1nc(N2CCCCC2)c2nc(N(CCO)CCO)nc(N3CCCCC3)c2n1` [DIPYRIDAMOLE], the Ki (as a rule, the equilibrium dissociation constant of an inhibitor or competing ligand from its target) at Phosphodiesterase 6 came to 0.125 µM; in experiment [2] it was 9 µM; at Phosphodiesterase 7 [3], 0.6 µM.
In turn, `CCCCCC[C@@H]([C@@H](C)O)n1cnc2c(N)ncnc21` [EHNA] showed a Ki in experiment [4] of 1 µM.
Molecule `CC(C)Cn1c(=O)n(C)c(=O)c2nc[nH]c21` [ISOBUTYLMETHYLXANTHINE] showed a Ki on Phosphodiesterase 7 [3] of 4 µM.
On Phosphodiesterase 1, `CCOC(=O)C1=C[C@]2(CC)CCCN3CCc4c(n1c1ccccc41)[C@@H]32` [VINPOCETINE] registered a Ki of 14 µM.
For the molecule `CCCOc1ccccc1-c1nc2[nH]nnc2c(=O)[nH]1` [ZAPRINAST], the Ki on Phosphodiesterase 6 was 0.4 µM; in experiment [5], 35 µM. Half-maximal inhibition in experiment [6] (IC50) was put at 22 µM.
